We go through 1 compound from patent publication US7741486B1, “Water-soluble titanium alkoxide material” (Sandia Corporation, priority 2008, dated 2010).

The structures appear in SMILES notation.

The format of this series is physicochemical. The text has this:
The bidentate nature of the OC6H6N (referred to herein as OPy) group, the steric bulk of the OC6H2(CH2N(CH3)2)3-2,4,6 (referred to herein as TAP) ligand, and the amino functionality of the OC6H2(CH2N(CH3)2)3-2,4,6 ligand combine to effectively limit conventional hydrolysis of the alkoxide while maintaining solubility in aqueous media. Therefore, unlike many other similar compounds, the compound of the present invention is both water soluble and stable in an aqueous solution.
The inhibition of hydrolysis at ligand sites even when the molecule is dispersed in water is attributed to steric constraints imposed by the bidentate pyridine carbinoxide (OPy) and monodentate tri-amino-phenoxide (TAP) groups. It is believed that the amino groups present on the TAP ligand further facilitate water solubilization through H-bonding with the water. The inert character of the molecule to conventional hydrolysis chemistry enables an evaluation of photoexcitation as a means to influence the evolution of intermolecular bond formation.

As to `CN(C)Cc1cc(CN(C)C)c([O][Ti]([O]Cc2ccccn2)([O]Cc2ccccn2)[O]c2c(CN(C)C)cc(CN(C)C)cc2CN(C)C)c(CN(C)C)c1` [(OC6H6N)2Ti(OC6H2(CH2N(CH3)2)3-2,4,6)2], the “stability in aqueous solution (resistance to conventional hydrolysis)” value was “water-stable” and the water solubility result is “water-soluble”.
